The results in this text go back to publication PMC4286194 (Biochemical Journal, 2015).

The target in one assay is TGFBR1 (Homo sapiens, UniProt P36897). The assay can be described thus: Kinase profiling. Type of assay: biochemical.
A further assay has as its target PKD1 (Homo sapiens, UniProt Q15139). The assay can be described thus: Kinase profiling. Type of assay: biochemical.
Another assay deals with BTK (Homo sapiens, UniProt Q06187). Description: Kinase assay, IC50 curve. Set-up: BTK (amino acids 2–659); His6 (N); made in house; host or cells: Sf9 insect cells. Format: biochemical. Particulars: read-out: IC50 against BTK.
A further assay deals with EPH-B2 (Homo sapiens, UniProt P29323). Description: Kinase profiling. Type of assay: biochemical.
The target in a further assay is T1, SIK3 (Homo sapiens, UniProt Q9Y2K2).
T1 construct: GST; made in house; host or cells: HEK293 cells
Description: Kinase assay, IC50 curve. Type of assay: biochemical. Particulars: read-out: IC50 against SIK3.

The next assay concerns the target Src (Homo sapiens, UniProt P12931). Description: Kinase profiling. Format: biochemical.
For a further assay, the target named is EPH-B4 (Homo sapiens, UniProt P54760). Description: Kinase profiling. Format: biochemical.
Another assay concerns the target YES1 (Homo sapiens, UniProt P07947). The assay can be described thus: Kinase profiling. Type of assay: biochemical.
For another assay, the target named is BRK (Homo sapiens, UniProt Q13882). The assay can be described thus: Kinase profiling. Format: biochemical.
Another assay addresses PHK (Homo sapiens, UniProt Q16816). Description: Kinase profiling. Type of assay: biochemical.
For another assay, the target named is Lck (Homo sapiens, UniProt P06239). Description: Kinase profiling. Format: biochemical.
In another assay the target is STK33 (Homo sapiens, UniProt Q9BYT3). The assay can be described thus: Kinase profiling. Type of assay: biochemical.
Chain of STK33 (Q9BYT3 whole entry): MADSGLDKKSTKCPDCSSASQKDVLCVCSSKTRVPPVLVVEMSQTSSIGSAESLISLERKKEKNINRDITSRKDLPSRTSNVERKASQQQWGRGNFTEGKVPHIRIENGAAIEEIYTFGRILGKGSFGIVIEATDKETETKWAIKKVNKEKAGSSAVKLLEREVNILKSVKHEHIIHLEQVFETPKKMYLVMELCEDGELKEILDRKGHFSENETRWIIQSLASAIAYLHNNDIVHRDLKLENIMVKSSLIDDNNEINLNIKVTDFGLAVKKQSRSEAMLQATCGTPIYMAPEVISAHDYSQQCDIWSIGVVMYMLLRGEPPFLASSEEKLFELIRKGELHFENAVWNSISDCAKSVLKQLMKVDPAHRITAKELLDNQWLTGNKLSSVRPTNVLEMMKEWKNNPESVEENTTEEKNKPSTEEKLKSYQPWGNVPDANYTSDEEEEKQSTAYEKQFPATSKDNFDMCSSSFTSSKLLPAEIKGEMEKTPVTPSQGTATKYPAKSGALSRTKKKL

Chain of Src (P12931 whole entry): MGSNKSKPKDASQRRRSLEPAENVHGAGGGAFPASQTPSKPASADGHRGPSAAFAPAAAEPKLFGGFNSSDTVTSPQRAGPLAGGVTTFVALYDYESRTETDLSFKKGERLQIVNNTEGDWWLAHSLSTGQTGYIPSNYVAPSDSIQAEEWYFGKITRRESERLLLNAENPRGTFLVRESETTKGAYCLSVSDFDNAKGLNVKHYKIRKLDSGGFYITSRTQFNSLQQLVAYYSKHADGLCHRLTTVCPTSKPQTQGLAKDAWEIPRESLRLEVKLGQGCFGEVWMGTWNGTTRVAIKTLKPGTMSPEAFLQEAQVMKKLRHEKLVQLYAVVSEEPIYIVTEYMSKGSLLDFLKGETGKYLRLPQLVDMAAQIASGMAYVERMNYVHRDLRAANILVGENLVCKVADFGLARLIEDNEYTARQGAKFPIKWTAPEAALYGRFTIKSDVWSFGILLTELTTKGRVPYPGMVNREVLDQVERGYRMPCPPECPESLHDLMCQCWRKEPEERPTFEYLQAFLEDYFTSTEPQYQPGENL
Chain of BRK (Q13882 whole entry): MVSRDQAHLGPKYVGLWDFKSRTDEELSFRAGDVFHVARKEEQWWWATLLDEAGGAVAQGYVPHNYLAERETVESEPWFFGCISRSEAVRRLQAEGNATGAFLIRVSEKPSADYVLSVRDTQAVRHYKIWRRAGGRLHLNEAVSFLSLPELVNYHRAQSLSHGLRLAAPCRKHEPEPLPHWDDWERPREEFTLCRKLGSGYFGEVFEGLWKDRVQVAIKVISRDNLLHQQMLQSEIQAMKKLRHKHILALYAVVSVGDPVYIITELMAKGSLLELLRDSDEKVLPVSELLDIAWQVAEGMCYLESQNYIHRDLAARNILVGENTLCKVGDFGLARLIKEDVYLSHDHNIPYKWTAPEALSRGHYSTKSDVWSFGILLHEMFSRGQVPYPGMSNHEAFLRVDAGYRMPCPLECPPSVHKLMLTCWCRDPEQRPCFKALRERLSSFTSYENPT
Chain of EPH-B2 (P29323 19-1055): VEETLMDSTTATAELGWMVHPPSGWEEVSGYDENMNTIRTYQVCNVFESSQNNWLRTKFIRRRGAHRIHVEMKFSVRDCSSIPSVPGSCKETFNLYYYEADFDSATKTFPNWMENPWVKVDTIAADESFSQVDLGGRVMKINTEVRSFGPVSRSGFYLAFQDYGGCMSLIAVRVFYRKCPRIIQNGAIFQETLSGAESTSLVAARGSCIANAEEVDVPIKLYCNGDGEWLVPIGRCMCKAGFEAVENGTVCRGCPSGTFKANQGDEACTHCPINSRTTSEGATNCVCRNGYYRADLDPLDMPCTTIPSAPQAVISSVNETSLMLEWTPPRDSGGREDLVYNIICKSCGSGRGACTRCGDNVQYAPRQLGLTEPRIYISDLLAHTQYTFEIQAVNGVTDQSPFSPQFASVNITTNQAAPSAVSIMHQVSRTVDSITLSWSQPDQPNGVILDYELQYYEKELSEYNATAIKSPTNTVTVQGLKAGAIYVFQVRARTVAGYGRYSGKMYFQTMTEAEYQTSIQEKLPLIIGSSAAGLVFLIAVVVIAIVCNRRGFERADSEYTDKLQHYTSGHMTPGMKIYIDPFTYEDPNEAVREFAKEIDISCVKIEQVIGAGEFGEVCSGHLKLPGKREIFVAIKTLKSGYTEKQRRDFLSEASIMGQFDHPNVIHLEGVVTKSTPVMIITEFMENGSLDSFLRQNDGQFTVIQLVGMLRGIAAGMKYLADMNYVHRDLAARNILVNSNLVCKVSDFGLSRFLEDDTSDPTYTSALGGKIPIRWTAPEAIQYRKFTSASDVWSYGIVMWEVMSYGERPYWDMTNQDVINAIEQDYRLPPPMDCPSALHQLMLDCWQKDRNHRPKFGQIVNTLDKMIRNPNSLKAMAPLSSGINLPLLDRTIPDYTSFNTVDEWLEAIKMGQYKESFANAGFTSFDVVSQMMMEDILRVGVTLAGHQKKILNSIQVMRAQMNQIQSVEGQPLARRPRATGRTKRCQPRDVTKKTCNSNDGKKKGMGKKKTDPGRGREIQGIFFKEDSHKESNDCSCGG
Chain of TGFBR1 (P36897 34-503): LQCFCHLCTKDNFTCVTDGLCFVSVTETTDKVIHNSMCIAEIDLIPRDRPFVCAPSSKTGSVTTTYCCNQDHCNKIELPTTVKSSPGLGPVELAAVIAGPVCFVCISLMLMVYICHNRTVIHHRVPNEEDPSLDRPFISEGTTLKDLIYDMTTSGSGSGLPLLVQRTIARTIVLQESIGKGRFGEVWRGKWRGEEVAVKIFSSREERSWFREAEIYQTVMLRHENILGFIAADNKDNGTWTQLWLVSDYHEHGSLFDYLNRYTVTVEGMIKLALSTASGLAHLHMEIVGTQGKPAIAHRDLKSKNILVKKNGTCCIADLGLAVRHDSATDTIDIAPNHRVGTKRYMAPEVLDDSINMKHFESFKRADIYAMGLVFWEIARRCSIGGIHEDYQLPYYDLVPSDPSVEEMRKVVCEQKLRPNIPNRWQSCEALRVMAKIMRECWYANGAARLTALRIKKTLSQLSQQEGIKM
Chain of Lck (P06239 whole entry): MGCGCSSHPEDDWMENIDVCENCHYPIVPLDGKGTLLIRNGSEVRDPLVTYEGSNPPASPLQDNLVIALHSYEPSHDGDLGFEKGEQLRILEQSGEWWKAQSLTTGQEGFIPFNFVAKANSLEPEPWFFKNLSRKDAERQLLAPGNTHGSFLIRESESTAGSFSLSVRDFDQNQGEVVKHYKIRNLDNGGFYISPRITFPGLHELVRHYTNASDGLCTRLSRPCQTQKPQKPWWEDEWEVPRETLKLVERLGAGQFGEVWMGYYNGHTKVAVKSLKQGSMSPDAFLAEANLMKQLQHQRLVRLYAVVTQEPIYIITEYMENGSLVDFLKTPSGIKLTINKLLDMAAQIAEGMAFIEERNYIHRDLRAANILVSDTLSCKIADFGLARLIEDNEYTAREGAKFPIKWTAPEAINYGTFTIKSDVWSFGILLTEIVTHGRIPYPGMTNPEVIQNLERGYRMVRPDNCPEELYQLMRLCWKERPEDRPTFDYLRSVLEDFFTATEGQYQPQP
Chain of PHK (Q16816 whole entry): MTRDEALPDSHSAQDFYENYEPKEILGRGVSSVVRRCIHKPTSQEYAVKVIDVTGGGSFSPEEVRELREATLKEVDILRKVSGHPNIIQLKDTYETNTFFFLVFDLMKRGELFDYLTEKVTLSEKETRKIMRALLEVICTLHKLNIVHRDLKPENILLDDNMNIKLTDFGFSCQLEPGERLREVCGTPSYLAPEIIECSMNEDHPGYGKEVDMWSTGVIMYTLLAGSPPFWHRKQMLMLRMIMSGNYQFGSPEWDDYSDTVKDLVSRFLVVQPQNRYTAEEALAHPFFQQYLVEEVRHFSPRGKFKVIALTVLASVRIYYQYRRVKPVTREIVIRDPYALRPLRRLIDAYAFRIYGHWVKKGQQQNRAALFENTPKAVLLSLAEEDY
Chain of EPH-B4 (P54760 16-987): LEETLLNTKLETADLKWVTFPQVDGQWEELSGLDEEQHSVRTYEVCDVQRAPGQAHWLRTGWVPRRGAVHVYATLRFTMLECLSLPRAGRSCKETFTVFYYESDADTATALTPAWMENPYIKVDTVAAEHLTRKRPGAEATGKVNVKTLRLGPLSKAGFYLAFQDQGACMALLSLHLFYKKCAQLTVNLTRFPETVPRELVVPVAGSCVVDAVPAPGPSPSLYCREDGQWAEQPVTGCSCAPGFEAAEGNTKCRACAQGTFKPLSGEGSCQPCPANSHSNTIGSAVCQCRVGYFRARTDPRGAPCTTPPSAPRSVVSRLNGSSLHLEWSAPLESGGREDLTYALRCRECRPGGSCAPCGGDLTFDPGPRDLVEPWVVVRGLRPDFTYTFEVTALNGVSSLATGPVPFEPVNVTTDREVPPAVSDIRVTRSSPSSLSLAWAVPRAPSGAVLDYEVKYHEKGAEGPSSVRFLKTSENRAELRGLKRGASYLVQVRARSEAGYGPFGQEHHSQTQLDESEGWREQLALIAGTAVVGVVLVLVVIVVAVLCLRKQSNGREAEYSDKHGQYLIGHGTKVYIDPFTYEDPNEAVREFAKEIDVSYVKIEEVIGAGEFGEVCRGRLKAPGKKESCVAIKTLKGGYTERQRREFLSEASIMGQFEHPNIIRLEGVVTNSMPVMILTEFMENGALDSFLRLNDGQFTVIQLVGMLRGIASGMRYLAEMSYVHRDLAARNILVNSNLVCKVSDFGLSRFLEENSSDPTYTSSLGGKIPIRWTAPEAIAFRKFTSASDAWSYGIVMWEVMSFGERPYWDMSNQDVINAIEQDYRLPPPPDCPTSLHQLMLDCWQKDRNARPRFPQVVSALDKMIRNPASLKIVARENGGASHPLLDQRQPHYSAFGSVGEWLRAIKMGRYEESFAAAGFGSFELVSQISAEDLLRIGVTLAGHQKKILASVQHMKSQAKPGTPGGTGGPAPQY

With `COc1cc(Nc2c(C#N)cnc3cc(OCCCN4CCN(C)CC4)c(OC)cc23)c(Cl)cc1Cl` [Bosutinib, bosutinib], the remaining activity at 0.1 µM came to 87 ± 14% at TGFBR1 (0.1 µM); 89 ± 2% on PKD1; 1 ± 1% at EPH-B2 (0.1 µM); 1% on Src (0.1 µM); 10% on EPH-B4 (0.1 µM); 2 ± 1% on YES1 (0.1 µM). Also, the remaining activity at 0.1 µM on BRK (0.1 µM) is 88 ± 11%; at PHK (0.1 µM), 55%; at Lck (0.1 µM) it was 1%; on STK33 (0.1 µM), 34%. The remaining activity at 1 µM on TGFBR1 (1 µM) turned out to be 101 ± 6%; on EPH-B2 (1 µM), 0%; at Src (1 µM), 1%; on EPH-B4 (1 µM), 2%; on YES1 (1 µM), 1%; at BRK (1 µM), 48%. Further, the remaining activity at 1 µM on PHK (1 µM) was 12%; on Lck (1 µM) it was 1%; at STK33 (1 µM), 17 ± 4%. Also, the 50% inhibitory concentration (IC50) at BTK was 15 nM; at SIK3 it was 18 nM. Besides, the “Activity of Bcr-Abl, Src and Btk in primary mouse macrophages” value in the assay with Bcr-Abl, Src and Btk is recorded as “completely blocking”.

As a reminder, the remaining activity is the signal under treatment as a percentage of the control signal. The term IC50 denotes the midpoint of a concentration-inhibition curve.
